Measured values: ChEMBL document CHEMBL6109039, “Designed and synthesized novel tripeptides targeting diabetes and its related pathologies” (Eur J Med Chem, 2025)

What was measured:
Format in all cases: functional
Mus musculus [1] = assay: Antidiabetic activity in Nicotinamide/Streptozotocin induced male Balb/c mouse model assessed as reduction in HDL-Cholesterol level in blood at 10 mg/kg, po treated for 21 days (reference value: 30 +/- 1.80 mg/dL); settings: time 21 day
Mus musculus [2] = assay: Antidiabetic activity in Nicotinamide/Streptozotocin induced male Balb/c mouse model assessed as reduction in total cholesterol level in blood at 10 mg/kg, po treated for 21 days (reference value: 121 +/- 6.05 mg/dL); settings: time 21 day
Mus musculus [3] = assay: Antidiabetic activity in Nicotinamide/Streptozotocin induced male Balb/c mouse model assessed as reduction in fasting blood glucose levels at 10 mg/kg, po measured immediately by glucometer analysis (reference value: 127.50 +/- 6.87 mg/dl)
Mus musculus [4] = assay: Antidiabetic activity in Nicotinamide/Streptozotocin induced male Balb/c mouse model assessed as change in body weight at 10 mg/kg, po measured immediately (reference value: 25.08 +/- 1.25 g)
Mus musculus [5] = assay: Antidiabetic activity in Nicotinamide/Streptozotocin induced male Balb/c mouse model assessed as Non-HDL-Cholesterol level in blood at 10 mg/kg, po treated for 21 days (reference value: 75 mg/dL); settings: time 21 day
Mus musculus [6] = assay: Antidiabetic activity in Nicotinamide/Streptozotocin induced male Balb/c mouse model assessed as reduction in Triglycerides level in blood at 10 mg/kg, po treated for 21 days (reference value: 61 +/- 3.05 mg/dL); settings: time 21 day
Mus musculus [7] = assay: Antidiabetic activity in Nicotinamide/Streptozotocin induced male Balb/c mouse model assessed as reduction in fasting blood glucose levels at 10 mg/kg, po measured after 7 days by glucometer analysis (reference value: 160.5 +/- 8.02 mg/dl); settings: time 7 day
Mus musculus [8] = assay: Antidiabetic activity in Nicotinamide/Streptozotocin induced male Balb/c mouse model assessed as reduction in LDL-Cholesterol level in blood at 10 mg/kg, po treated for 21 days (reference value: 46 +/- 2.30 mg/dL); settings: time 21 day
Mus musculus [9] = assay: Antidiabetic activity in Nicotinamide/Streptozotocin induced male Balb/c mouse model assessed as reduction in fasting blood glucose levels at 10 mg/kg, po measured after 21 days by glucometer analysis (reference value: 180.5 +/- 9.02 mg/dl); settings: time 21 day
Mus musculus [10] = assay: Antidiabetic activity in Nicotinamide/Streptozotocin induced male Balb/c mouse model assessed as reduction in alanine aminotransferase level in blood at 10 mg/kg, po treated for 21 days (reference value: 111 +/- 5.05 U/L); settings: time 21 day
Mus musculus [11] = assay: Antidiabetic activity in Nicotinamide/Streptozotocin induced male Balb/c mouse model assessed as reduction in aspartate transaminase level in blood at 10 mg/kg, po treated for 21 days (reference value: 171 +/- 8.55 U/L); settings: time 21 day
Mus musculus [12] = assay: Antidiabetic activity in Nicotinamide/Streptozotocin induced male Balb/c mouse model assessed as TC/HDL-Cholesterol ratio in blood at 10 mg/kg, po treated for 21 days (reference value: 4.03); settings: time 21 day
Mus musculus [13] = assay: Antidiabetic activity in Nicotinamide/Streptozotocin induced male Balb/c mouse model assessed as change in body weight at 10 mg/kg, po treated for 21 days relative to control; settings: time 21 day
Mus musculus [14] = assay: Antidiabetic activity in Nicotinamide/Streptozotocin induced male Balb/c mouse model assessed as change in body weight at 10 mg/kg, po treated for 21 days (reference value: 16.62 +/- 0.83 g); settings: time 21 day
Mus musculus [15] = assay: Antidiabetic activity in Nicotinamide/Streptozotocin induced male Balb/c mouse model assessed as reduction in VLDL-Cholesterol level in blood at 10 mg/kg, po treated for 21 days (reference value: 14 +/- 0.6 mg/dL); settings: time 21 day
Mus musculus [16] = assay: Antidiabetic activity in Nicotinamide/Streptozotocin induced male Balb/c mouse model assessed as relative liver weight at 10 mg/kg, po treated for 21 days (reference value: 0.77 +/- 0.04 mg/g); settings: time 21 day
Mus musculus [17] = assay: Antidiabetic activity in Nicotinamide/Streptozotocin induced male Balb/c mouse model assessed as LDL-Cholesterol/HDL Cholesterol ratio in blood at 10 mg/kg, po treated for 21 days (reference value: 1.53); settings: time 21 day
Mus musculus [18] = assay: Antidiabetic activity in Nicotinamide/Streptozotocin induced male Balb/c mouse model assessed as reduction in HbA1c levels at 10 mg/kg, po treated for 21 days by Turbidimetric inhibition immunoassay; parameters: scale not given: the % may be the effect or the level left; settings: time 21 day
Mus musculus [19] = assay: Antidiabetic activity in Nicotinamide/Streptozotocin induced male Balb/c mouse model assessed as reduction in fasting blood glucose levels at 10 mg/kg, po measured after 14 days by glucometer analysis (reference value: 168.5 +/- 8.42 mg/dl); settings: time 14 day

CCC1=C(C)CN(C(=O)NCCc2ccc(S(=O)(=O)NC(=O)N[C@H]3CC[C@H](C)CC3)cc2)C1=O [GLIMEPIRIDE]
Activity (Mus musculus [1]): 37 mg/dL
Activity (Mus musculus [2]): 108 mg/dL
Activity (Mus musculus [3]): 109 mg/dL
Activity (Mus musculus [4]): 12.94 g
Activity (Mus musculus [5]): 82 mg/dL
Activity (Mus musculus [6]): 56 mg/dL
Activity (Mus musculus [7]): 143.5 mg/dL
Activity (Mus musculus [8]): 26 mg/dL
Activity (Mus musculus [9]): 111.5 mg/dL
Activity (Mus musculus [10]): 97 U/L
Activity (Mus musculus [11]): 153 U/L
Ratio (Mus musculus [12]): 2.91
Activity (Mus musculus [13]): 42.69%
Activity (Mus musculus [14]): 22.58 g
Activity (Mus musculus [15]): 12 mg/dL
Activity (Mus musculus [16]): 1.23 mg/g
Ratio (Mus musculus [17]): 0.702
Activity (Mus musculus [18]): 7.1%
Activity (Mus musculus [19]): 108.5 mg/dL
